Data on 24 compounds can be found in US20240166660A1, “KRAS G12C INHIBITORS” (BeiGene Switzerland GmbH, priority 2021, published 2024).

Where only a bound is given, the exact number is not on record here.

The assay addresses KRAS (aa 1-169) G12C, C51S, C80L, C118S (Homo sapiens (Human), UniProt P01116, C118S/C51S/C80L/G12C). Kind of assay: Biochemical functional assay: SOS1-mediated nucleotide exchange of GDP-loaded KRAS G12C, binding to GST-cRaf RBD, FRET readout. The following applies: 3 hrs pre-incubation with compound at 24° C., SOS1, GTPyS. The protocol:
Biochemical Functional Assay
The KRAS (aa 1-169) G12C, C51S, C80L, C118S with a His-tag was expressed, purified and loaded with GDP in house. All protein and substrate solutions were prepared in assay buffer containing 25 mM HEPES pH7.5, 10 mM MgCl2, and 0.01% Triton X-100. Purified GDP-loaded KRAS (aa 1-169) G12C, C51S, C80L, C118S protein was pre-incubated with a serially diluted compound at 24° C. for 3 hrs. Purified SOS1 (aa 564-1049) protein, GTPyS (Sigma) and GST-cRaf RBD (aa 1-149) were then added to each well and incubated at 24° C. for additional 3 hrs. […] Following the incubation, Mab Anti-6HIS-T cryptate (Cisbio) and Mab Anti GST-XL665 (Cisbio) were added and further incubated at 24° C. for 3 hrs. The binding interaction between active GTPyS KRAS G12C and GST-cRaf RBD brings the Tb and XL665 into close proximity enabling an increased FRET signal (Ex337 nm, Em665 nm/620 nm). The inhibition percentage of nucleotide exchange reaction in presence of increasing concentrations of compounds was calculated based on the ratio of fluorescence at 665 nm to that at 620 nm detected on a BMG PHERAstar FSX instrument. The IC50 value of each compound was calculated from fitting the data to the four-parameter logistic model by Dotmatics.

Where [1] appears, read: inhibition of nucleotide exchange.

KRAS (aa 1-169) G12C, C51S, C80L, C118S, sequence (P01116 other isoform, or with tags, fused parts or gaps G12C/C51S/C80L/C118S): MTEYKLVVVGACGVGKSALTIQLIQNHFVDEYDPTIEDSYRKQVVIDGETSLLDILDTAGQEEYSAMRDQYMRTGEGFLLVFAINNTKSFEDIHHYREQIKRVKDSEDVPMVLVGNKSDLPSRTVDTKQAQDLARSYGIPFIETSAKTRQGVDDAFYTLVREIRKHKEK

As usually defined, the IC50 is the concentration at which inhibition is half-maximal. In the case of `C=CC(=O)N1CCN(c2ncnc3cc(-c4c(C)ccc5[nH]ncc45)c4c(c23)OCCC4)CC1` [Compound A13, 1-(4-(5-(5-methyl-1H-indazol-4-yl)-3,4-dihydro-2H-pyrano[2,3-f]quinazolin-10-yl)piperazin-1-yl)prop-2-en-1-one], the IC50 under setting [1] was found to be 3.31 µM.

For the compound `C=CC(=O)N1CCN(c2ncnc3cc(-c4cc(F)cc5[nH]ncc45)c4c(c23)OCCC4)C[C@@H]1CC#N` [Compound A16, (S)-2-(1-acryloyl-4-(5-(6-fluoro-1H-indazol-4-yl)-3,4-dihydro-2H-pyrano[2,3-f]quinazolin-10-yl)piperazin-2-yl)acetonitrile], the IC50 under setting [1] was determined as 0.0898 µM.

Consider `C=CC(=O)N1CCN(c2ncnc3cc(-c4c(Cl)c(F)cc5[nH]ncc45)c4c(c23)OCCC4)C[C@@H]1CC#N` [Compound A17, 2-((2S)-1-acryloyl-4-(5-(5-chloro-6-fluoro-1H-indazol-4-yl)-3,4-dihydro-2H-pyrano[2,3-f]quinazolin-10-yl)piperazin-2-yl)acetonitrile], for which, under setting [1], the IC50 worked out at 0.0317 µM.

Take `C=CC(=O)N1CCN(c2ncnc3cc(-c4cc(C(F)(F)F)cc5[nH]ncc45)c4c(c23)OCCC4)C[C@@H]1CC#N` [Compound A18, (S)-2-(1-acryloyl-4-(5-(6-(trifluoromethyl)-1H-indazol-4-yl)-3,4-dihydro-2H-pyrano[2,3-f]quinazolin-10-yl)piperazin-2-yl)acetonitrile]: under setting [1], the 50% inhibitory concentration (IC50) was found to be 0.0378 µM.

For `C=CC(=O)N1CCN(c2ncnc3cc(-c4c(Cl)c(F)cc5[nH]ncc45)c4c(c23)OCCC4)CC1` [Compound A19, 1-(4-(5-(5-chloro-6-fluoro-1H-indazol-4-yl)-3,4-dihydro-2H-pyrano[2,3-f]quinazolin-10-yl)piperazin-1-yl)prop-2-en-1-one], the half-inhibitory concentration (IC50) under setting [1] came out at 0.691 µM.

As for `C=CC(=O)N1CCN(c2ncnc3cc(-c4c(Cl)c(C)cc5[nH]ncc45)c4c(c23)OCCC4)C[C@@H]1CC#N` [Compound A20, 2-((2S)-1-acryloyl-4-(5-(5-chloro-6-methyl-1H-indazol-4-yl)-3,4-dihydro-2H-pyrano[2,3-f]quinazolin-10-yl)piperazin-2-yl)acetonitrile], the IC50 under setting [1] was found to be 0.0149 µM.

For `C=CC(=O)N1CCN(c2ncnc3cc(-c4ccc(O)c5ccccc45)c4c(c23)OCCC4)C[C@@H]1CC#N` [Compound A21, (S)-2-(1-acryloyl-4-(5-(4-hydroxynaphthalen-1-yl)-3,4-dihydro-2H-pyrano[2,3-f]quinazolin-10-yl)piperazin-2-yl)acetonitrile], the IC50 under setting [1] stood at 0.005 µM.

As for `C=CC(=O)N1CCN(c2ncnc3cc(-c4cnc(N)cc4C(F)(F)F)c4c(c23)OCCC4)C[C@@H]1CC#N` [Compound A22, (S)-2-(1-acryloyl-4-(5-(6-amino-4-(trifluoromethyl)pyridin-3-yl)-3,4-dihydro-2H-pyrano[2,3-f]quinazolin-10-yl)piperazin-2-yl)acetonitrile], under setting [1], the 50% inhibitory concentration (IC50) was 0.256 µM.

For the compound `C=C(F)C(=O)N1CCN(c2ncnc3cc(-c4c(Cl)c(C)cc5[nH]ncc45)c4c(c23)OCCC4)C[C@@H]1CC#N` [Compound A23, 2-((2S)-4-(5-(5-chloro-6-methyl-1H-indazol-4-yl)-3,4-dihydro-2H-pyrano[2,3-f]quinazolin-10-yl)-1-(2-fluoroacryloyl)piperazin-2-yl)acetonitrile], under setting [1], the half-maximal inhibitory concentration (IC50) stood at 0.346 µM.

For `C=CC(=O)N1CCN(c2ncnc3cc(-c4c(C)cccc4C)c4c(c23)OCCC4)C[C@@H]1CC#N` [Compound A24, (S)-2-(1-acryloyl-4-(5-(2,6-dimethylphenyl)-3,4-dihydro-2H-pyrano[2,3-f]quinazolin-10-yl)piperazin-2-yl)acetonitrile], the IC50 under setting [1] was determined as 0.262 µM.

Consider `C=CC(=O)N1CCN(c2ncnc3cc(-c4c(C)c(C)cc5[nH]ncc45)c4c(c23)OCCC4)C[C@@H]1CC#N` [Compound A25, 2-((2S)-1-acryloyl-4-(5-(5,6-dimethyl-1H-indazol-4-yl)-3,4-dihydro-2H-pyrano[2,3-f]quinazolin-10-yl)piperazin-2-yl)acetonitrile], for which the half-maximal inhibitory concentration (IC50) under setting [1] amounted to 0.0155 µM.

Consider `C=CC(=O)N1CCN(c2ncnc3cc(-c4c(C)c(Cl)cc5[nH]ncc45)c4c(c23)OCCC4)C[C@@H]1CC#N` [Compound A26, 2-((2S)-1-acryloyl-4-(5-(6-chloro-5-methyl-1H-indazol-4-yl)-3,4-dihydro-2H-pyrano[2,3-f]quinazolin-10-yl)piperazin-2-yl)acetonitrile], for which the 50% inhibitory concentration (IC50) under setting [1] stood at 0.0099 µM.

Regarding `C=CC(=O)N1CCN(c2ncnc3cc(-c4ccc(O)c(Cl)c4)c4c(c23)OCCC4)C[C@@H]1CC#N` [Compound A27, (S)-2-(1-acryloyl-4-(5-(3-chloro-4-hydroxyphenyl)-3,4-dihydro-2H-pyrano[2,3-f]quinazolin-10-yl)piperazin-2-yl)acetonitrile], the IC50 (bound in uM) is > 10 µM.

Consider `C=CC(=O)N1CCN(c2ncnc3cc(-c4ccc(O)c(F)c4)c4c(c23)OCCC4)C[C@@H]1CC#N` [Compound A28, (S)-2-(1-acryloyl-4-(5-(3-fluoro-4-hydroxyphenyl)-3,4-dihydro-2H-pyrano[2,3-f]quinazolin-10-yl)piperazin-2-yl)acetonitrile], for which the IC50 (bound in uM) is > 10 µM.

As for `C=CC(=O)N1CCN(c2ncnc3cc(-c4c(Cl)c(Cl)cc5[nH]ncc45)c4c(c23)OCCC4)C[C@@H]1CC#N` [Compound A29, 2-((2S)-1-acryloyl-4-(5-(5,6-dichloro-1H-indazol-4-yl)-3,4-dihydro-2H-pyrano[2,3-f]quinazolin-10-yl)piperazin-2-yl)acetonitrile], the IC50 under setting [1] came out at 0.0093 µM.

Turning to `C=C(F)C(=O)N1CCN(c2ncnc3cc(-c4c(C)cccc4F)c4c(c23)OCCC4)C[C@@H]1CC#N` [Compound A30, 2-((2S)-4-(5-(2-fluoro-6-methylphenyl)-3,4-dihydro-2H-pyrano[2,3-f]quinazolin-10-yl)-1-(2-fluoroacryloyl)piperazin-2-yl)acetonitrile], the half-inhibitory concentration (IC50) under setting [1] came to 1.96 µM.

For the compound `C=CC(=O)N1CCN(c2ncnc3cc(-c4cccc(C)c4F)c4c(c23)OCCC4)C[C@@H]1CC#N` [Compound A31, (S)-2-(1-acryloyl-4-(5-(2-fluoro-3-methylphenyl)-3,4-dihydro-2H-pyrano[2,3-f]quinazolin-10-yl)piperazin-2-yl)acetonitrile], under setting [1], the IC50 came to 0.137 µM.

For `C=CC(=O)N1CCN(c2ncnc3cc(-c4cccc5cccc(Cl)c45)c4c(c23)OCCC4)C[C@@H]1CC#N` [Compound A32, (S)-2-(1-acryloyl-4-(5-(8-chloronaphthalen-1-yl)-3,4-dihydro-2H-pyrano[2,3-f]quinazolin-10-yl)piperazin-2-yl)acetonitrile], the 50% inhibitory concentration (IC50) under setting [1] came to 0.012 µM.

On to `C=CC(=O)N1CCN(c2ncnc3cc(-c4c(C)cccc4F)c4c(c23)OCCC4)C[C@@H]1CC#N` [Compound A33, 2-((2S)-1-acryloyl-4-(5-(2-fluoro-6-methylphenyl)-3,4-dihydro-2H-pyrano[2,3-f]quinazolin-10-yl)piperazin-2-yl)acetonitrile], for which, under setting [1], the 50% inhibitory concentration (IC50) worked out at 0.233 µM.

For the compound `C=CC(=O)N1CCN(c2ncnc3cc(-c4c(F)cccc4F)c4c(c23)OCCC4)C[C@@H]1CC#N` [Compound A34, (S)-2-(1-acryloyl-4-(5-(2,6-difluorophenyl)-3,4-dihydro-2H-pyrano[2,3-f]quinazolin-10-yl)piperazin-2-yl)acetonitrile], under setting [1], the IC50 amounted to 2.11 µM.

As for `C=CC(=O)N1CCN(c2nc(OC[C@@H]3CCCN3C)nc3cc(-c4c(Cl)c(C)cc5[nH]ncc45)c4c(c23)OCCC4)C[C@@H]1CC#N` [Compound B1, 2-((2S)-1-acryloyl-4-(5-(5-chloro-6-methyl-1H-indazol-4-yl)-8-(((S)-1-methylpyrrolidin-2-yl)methoxy)-3,4-dihydro-2H-pyrano[2,3-f]quinazolin-10-yl)piperazin-2-yl)acetonitrile], the concentration for half-maximal inhibition (IC50) under setting [1] was found to be 0.003 µM.

In the case of `C=CC(=O)N1CCN(c2nc(N3CC(N(C)C)C3)nc3cc(-c4c(F)cccc4F)c4c(c23)OCCC4)CC1` [Compound B2, 1-(4-(5-(2,6-difluorophenyl)-8-(3-(dimethylamino)azetidin-1-yl)-3,4-dihydro-2H-pyrano[2,3-f]quinazolin-10-yl)piperazin-1-yl)prop-2-en-1-one], under setting [1], the IC50 stood at 2.24 µM.

With `C=CC(=O)N1CCN(c2nc(O[C@H]3CN(C)C[C@@H]3OC)nc3cc(-c4c(Cl)c(C)cc5[nH]ncc45)c4c(c23)OCCC4)C[C@@H]1CC#N` [Compound B3, 2-((2S)-1-acryloyl-4-(5-(5-chloro-6-methyl-1H-indazol-4-yl)-8-(((3S,4S)-4-methoxy-1-methylpyrrolidin-3-yl)oxy)-3,4-dihydro-2H-pyrano[2,3-f]quinazolin-10-yl)piperazin-2-yl)acetonitrile], the half-inhibitory concentration (IC50) under setting [1] is 0.0065 µM.

`C=CC(=O)N1CCN(c2nc(N3CC(N(C)C)C3)nc3cc(-c4c(Cl)c(C)cc5[nH]ncc45)c4c(c23)OCCC4)C[C@@H]1CC#N` [Compound B4, 2-((2S)-1-acryloyl-4-(5-(5-chloro-6-methyl-1H-indazol-4-yl)-8-(3-(dimethylamino)azetidin-1-yl)-3,4-dihydro-2H-pyrano[2,3-f]quinazolin-10-yl)piperazin-2-yl)acetonitrile]: under setting [1], the IC50 worked out at 0.0047 µM.
